# Data taken from patent US6159746A, “Solid phase immunoassay to detect inhibitors of proteolytic enzymes” (Gruppo Lepetit S.p.A., priority 1994, dated 2000).
# Where two headings read alike, the source gives them in different places. Square brackets hold non-standard residues; d marks the D form. Peptide text beside a SMILES is read from it. * marks the point of attachment. Sta = CC(C)C[C@H](N)[C@@H](O)CC(=O)O; Isovaleryl = CC(C)CC(=O)*
# Legend:
# Type in all cases: biochemical
# Trypsin = test: Inhibition of trypsin, solid phase tubulin immunoassay (YL 1/2 antibody), Table I; conditions: trypsin 0.25 μg/ml, 20 mM TRIS pH 7.4, 2 hours at 37° C.; inhibitor 0.01 to 10 μg/ml
# Protocol: (§1) Covalent linkage of tubulin to the support
# (§2) 0.150 ml of a freshly made phosfate buffered saline (PBS) solution (pH=7.3) containing 0.03 mg of bis(sulfo-succinidimyl)suberate (BS3, Pierce, Rockford, Ill.) are dispensed into each well of a cova-link 96 wells plate (Nunc). The solution is left in the wells at room temperature for 90 minutes, afterwards the wells are washed three times with PBS solution.
# (§3) Afterwards, 0,150 ml of a PBS solution containing 5% glycine (v/v) and 0.75 μg of tubulin obtained according to Example 1 is added to each well. After 90 minutes at room temperature, the solution is removed and 0.3 ml of a 5% glycine PBS solution are added. After about 2 hours, the wells are washed with fresh PBS solution.
# (§4) Determination of the anti-proteolytic activity
# (§5) 0.15 ml of a solution containing a proteolytic activity and a known inhibitor (concentration from 0.01 to 10 μg/ml) are added to the wells treated according to Example 2 or Example 2a and incubated for 2 hours at 37° C.
# (§6) The employed proteolytic enzymes are:
# (§7) Serine class: trypsin (0.25 μg/ml), subtilisin (0.25 μg/ml), elastase (0.5 μg/ml) and cathepsin G (5 μg/ml), in a 20 mM solution of Tris-hydroxymethyl-aminomethanchloride (TRIS) (pH=7.4);
# (§8) Table I reports the concentration of these inhibitors which determines a 50% inhibition of the above proteases.
# (§9) After three rapid washing with PBS solution (pH=7.3), the inhibitory activity is determined as follows:
# (§10) A YL 1/2 antibody solution (Amersham) diluted 1:1000 in PBS buffer is added to each well and incubated for 1 hour at room temperature. After three rapid washing with PBS solution, an anti-rat peroxydated antibody solution (Amersham) diluted 1:1000 in PBS buffer is added to each well and incubated for 1 hour at room temperature. After 10-15 minutes, the colour is developed with a 0.5 M citric acid solution (pH=5.5) containing 1 mg/ml of o-phenylendiamine. After 5-10 minutes, the reaction is stopped with H2 SO4 4 M. The colour is detected on a Titertek Multiscan MCC340-HK spectrophotometer reading the absorbance at 492 nm.
# Cathepsin G = target: T1, Cathepsin G (Homo sapiens, UniProt P08311); test: Inhibition of cathepsin G, solid phase tubulin immunoassay, Table I
# T1 sequence (P08311 21-255): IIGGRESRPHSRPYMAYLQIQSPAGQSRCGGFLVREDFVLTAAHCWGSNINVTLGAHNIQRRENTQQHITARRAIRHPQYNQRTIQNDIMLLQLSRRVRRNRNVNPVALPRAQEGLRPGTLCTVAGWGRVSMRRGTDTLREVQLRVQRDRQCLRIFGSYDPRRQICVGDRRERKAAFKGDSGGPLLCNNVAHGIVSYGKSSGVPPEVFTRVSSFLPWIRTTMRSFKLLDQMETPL
# Protocol: as §1, §2, §3, §4, §5, §6, §7, §8, §9, §10
# Cathepsin D = Cathepsin D (Homo sapiens, UniProt P07339); test: Inhibition of cathepsin D, solid phase tubulin immunoassay, Table I
# Protocol: as §1, §2, §3, §4
# (§11) 0.15 ml of a solution containing a proteolytic activity and a known inhibitor (concentration from 0.01 to 10 μg/ml) are added to the wells treated according to Example 2 or Example 2a and incubated for 2 hours at 37° C. […]
# as §9
# (§12) A YL 1/2 antibody solution (Amersham) diluted 1:1000 in PBS buffer is added to each well and incubated for 1 hour at room temperature. […] After 5-10 minutes, the reaction is stopped with H2 SO4 4 M. The colour is detected on a Titertek Multiscan MCC340-HK spectrophotometer reading the absorbance at 492 nm.
# Papain [1] = target: Papain (Carica papaya, UniProt P00784); test: Inhibition of papain, solid phase tubulin immunoassay, Table I; conditions: papain 0.25 μg/ml, 50 mM acetate pH 5.5, 5 mM cysteine, 2 hours at 37° C.; inhibitor 0.01 to 10 μg/ml; read-out: Concentration of inhibitor in the proteolytic solution which determines the 50% inhibition of the protease (converted)
# Protocol: as §1, §2, §3, §4, §5, §6
# (§13) Cysteine class: papain (0.25 μg/ml) and cathepsin B (10 μg/ml) in a 50 mM acetate buffer solution (pH=5.5) containing 5 mM cysteine.
# as §8, §9, §10
# Hiv-1 protease = target: T2, Hiv-1 protease (Human immunodeficiency virus type 1 group M subtype B, UniProt P04585); test: Inhibition of Hiv-1 protease, solid phase tubulin immunoassay, Table I
# T2 construct: Hiv-1 protease
# Protocol: as §1, §2, §3, §4, §11, §9, §12
# Pepsin = Pepsin (Sus scrofa, UniProt P00791); test: Inhibition of pepsin, solid phase tubulin immunoassay, Table I
# Protocol: as §1, §2, §3, §4, §5, §6
# Aspartic class: pepsin (5 μg/ml), cathepsin D (5 μg/ml), renin (5 μg/ml) and Hiv-1 protease (5 μg/ml), in a 50 mM acetate buffer solution (pH=5.5) containing 0.01% Tween 20 (Pierce);
# as §9, §10
# Cathepsin B = Cathepsin B (Homo sapiens, UniProt P07858); test: Inhibition of cathepsin B, solid phase tubulin immunoassay, Table I
# Protocol: as §1, §2, §3, §4, §11, §9, §12
# [2] = tested on: proteases of the cysteine class; test: Specificity for protease classes, solid phase tubulin immunoassay; conditions: in words
# Protocol: (§14) As mentioned above, the first step of the present assay is the contact of the supported tubulin or tubulin-like peptide with a solution containing a proteolytic activity as above described. By contacting solutions containing different proteolytic activities and a same inhibitor substance, it is possible to determine both the specificity of said inhibitor against the selected protease and the percentage of inhibition.
# as §4, §5, §6, §13, §8, §9, §12
# Elastase = test: Inhibition of elastase, solid phase tubulin immunoassay, Table I; conditions: elastase 0.5 μg/ml, 20 mM TRIS pH 7.4, 2 hours at 37° C.; inhibitor 0.01 to 10 μg/ml
# Protocol: as §1, §2, §3, §4, §5, §6, §7, §8, §9, §10
# Renin = target: T3, Renin (Homo sapiens, UniProt P00797); test: Inhibition of renin, solid phase tubulin immunoassay, Table I
# T3 sequence (P00797 67-406): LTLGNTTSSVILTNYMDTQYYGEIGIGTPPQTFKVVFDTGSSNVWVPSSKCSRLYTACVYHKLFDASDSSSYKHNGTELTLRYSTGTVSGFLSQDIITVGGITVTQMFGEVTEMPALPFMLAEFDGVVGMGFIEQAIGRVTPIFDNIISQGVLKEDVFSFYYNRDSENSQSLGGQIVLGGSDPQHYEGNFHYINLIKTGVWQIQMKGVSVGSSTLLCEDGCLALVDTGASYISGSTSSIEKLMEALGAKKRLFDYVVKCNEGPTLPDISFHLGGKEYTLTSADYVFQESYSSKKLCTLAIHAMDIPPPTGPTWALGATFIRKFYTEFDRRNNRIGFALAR
# Protocol: as §1, §2, §3, §4, §11, §9, §12
# Subtilisin = test: Inhibition of subtilisin, solid phase tubulin immunoassay, Table I; conditions: subtilisin 0.25 μg/ml, 20 mM TRIS pH 7.4, 2 hours at 37° C.; inhibitor 0.01 to 10 μg/ml
# Protocol: as §1, §2, §3, §4, §5, §6, §7, §8, §9, §10
# [3] = tested on: proteases of the aspartic class; test: Specificity for protease classes, solid phase tubulin immunoassay; conditions: in words
# Protocol: as §14, §4, §5, §6
# Aspartic class: pepsin (5 μg/ml), cathepsin D (5 μg/ml), renin (5 μg/ml) and Hiv-1 protease (5 μg/ml), in a 50 mM acetate buffer solution (pH=5.5) containing 0.01% Tween 20 (Pierce); […]
# as §9, §12
# Papain [4] = target: T4, Papain (Carica papaya, UniProt P00784); test: Inhibition of papain, solid phase tubulin immunoassay, Table I; conditions: papain 0.25 μg/ml, 50 mM acetate pH 5.5, 5 mM cysteine, 2 hours at 37° C.; inhibitor 0.01 to 10 μg/ml
# T4 sequence (P00784 whole entry, looked up): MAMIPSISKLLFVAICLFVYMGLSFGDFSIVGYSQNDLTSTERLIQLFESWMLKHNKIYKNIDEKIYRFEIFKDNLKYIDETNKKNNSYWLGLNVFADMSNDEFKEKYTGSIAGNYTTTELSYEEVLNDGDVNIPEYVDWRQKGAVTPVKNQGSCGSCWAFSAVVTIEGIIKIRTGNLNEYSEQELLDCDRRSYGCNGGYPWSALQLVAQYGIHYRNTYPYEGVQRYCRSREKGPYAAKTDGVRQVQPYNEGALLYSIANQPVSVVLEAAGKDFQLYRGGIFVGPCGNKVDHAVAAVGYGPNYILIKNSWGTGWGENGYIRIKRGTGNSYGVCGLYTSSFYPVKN
# Protocol: as §1, §2, §3, §4, §5, §6, §13, §8, §9, §10
# [5] = tested on: proteases of the serine class; test: Specificity for protease classes, solid phase tubulin immunoassay; conditions: in words
# Protocol: as §14, §4, §5, §6
# Serine class: trypsin (0.25 μg/ml), subtilisin (0.25 μg/ml), elastase (0.5 μg/ml) and cathepsin G (5 μg/ml), in a 20 mM solution of Tris-hydroxymethyl-aminomethanchloride (TRIS) (pH=7.4); […]
# as §9, §12
# Sequence of Pepsin (P00791 60-385): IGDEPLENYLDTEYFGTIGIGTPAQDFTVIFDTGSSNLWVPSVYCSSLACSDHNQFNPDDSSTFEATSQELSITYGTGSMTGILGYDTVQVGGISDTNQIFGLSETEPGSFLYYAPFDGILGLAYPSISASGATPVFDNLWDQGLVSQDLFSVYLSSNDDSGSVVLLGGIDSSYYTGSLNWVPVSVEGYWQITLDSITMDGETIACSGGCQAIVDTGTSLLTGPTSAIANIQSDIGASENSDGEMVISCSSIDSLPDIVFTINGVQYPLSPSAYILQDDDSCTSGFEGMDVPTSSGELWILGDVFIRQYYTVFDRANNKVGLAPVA
# Sequence of Cathepsin D (P07339 65-412, species assumed): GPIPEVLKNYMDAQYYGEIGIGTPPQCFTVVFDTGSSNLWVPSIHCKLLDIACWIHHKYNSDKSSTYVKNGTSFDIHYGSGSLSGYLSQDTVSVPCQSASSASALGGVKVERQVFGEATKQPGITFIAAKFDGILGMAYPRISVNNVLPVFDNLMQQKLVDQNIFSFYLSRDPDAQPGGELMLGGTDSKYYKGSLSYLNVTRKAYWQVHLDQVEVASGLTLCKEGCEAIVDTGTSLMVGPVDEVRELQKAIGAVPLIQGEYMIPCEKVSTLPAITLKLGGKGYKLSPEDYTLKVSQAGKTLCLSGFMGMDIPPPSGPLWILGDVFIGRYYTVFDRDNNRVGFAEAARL
compound,measurement,setting,value
CC(=O)N[C@@H](CC(C)C)C(=O)N[C@@H](CC(C)C)C(=O)N[C@H](C=O)CCCNC(=N)N [Leupeptin],Concentration of inhibitor in the proteolytic solution which determines the 50% inhibition of the protease,Trypsin,n.i. (no inhibition)
same,IC50,Cathepsin G,> 23.4 µM
same,IC50,Cathepsin D,> 23.4 µM
same,IC50,Papain [1],0.117 µM
same,IC50,Hiv-1 protease,> 23.4 µM
same,IC50,Pepsin,> 23.4 µM
same,IC50,Cathepsin B,5.86 µM
same,specific inhibition of proteases of the cysteine class,[2],specific inhibition
same,Concentration of inhibitor in the proteolytic solution which determines the 50% inhibition of the protease,Elastase,n.i. (no inhibition)
same,IC50,Renin,> 23.4 µM
same,Concentration of inhibitor in the proteolytic solution which determines the 50% inhibition of the protease,Subtilisin,n.i. (no inhibition)
CC(C)CC(=O)N[C@H](C(=O)N[C@H](C(=O)N[C@@H](CC(C)C)[C@@H](O)CC(=O)N[C@@H](C)C(=O)N[C@@H](CC(C)C)[C@@H](O)CC(=O)O)C(C)C)C(C)C [Pepstatin] (Isovaleryl-VV[Sta]A[Sta]-OH),Concentration of inhibitor in the proteolytic solution which determines the 50% inhibition of the protease,Trypsin,n.i. (no inhibition)
same,IC50,Cathepsin G,> 14.6 µM
same,IC50,Papain [1],> 14.6 µM
same,IC50,"Pepsin; 50% inhibition of pepsin, under the test conditions",~0.02 µM
same,specific inhibition of proteases of the aspartic class,[3],specific inhibitor for the proteases of the aspartic class
same,Concentration of inhibitor in the proteolytic solution which determines the 50% inhibition of the protease,Elastase,n.i. (no inhibition)
same,Concentration of inhibitor in the proteolytic solution which determines the 50% inhibition of the protease,Subtilisin,n.i. (no inhibition)
α-anti trypsin: inhibitor of the serine class,Concentration of inhibitor in the proteolytic solution which determines the 50% inhibition of the protease,Trypsin,1.0 µg/mL
same,Concentration of inhibitor in the proteolytic solution which determines the 50% inhibition of the protease,"Cathepsin G; cathepsin G 5 μg/ml, 20 mM TRIS pH 7.4, 2 hours at 37° C., inhibitor 0.01 to 10 μg/ml",n.i. (no inhibition)
same,Concentration of inhibitor in the proteolytic solution which determines the 50% inhibition of the protease,"Cathepsin D; cathepsin D 5 μg/ml, 50 mM acetate pH 5.5, 0.01% Tween 20, 2 hours at 37° C., inhibitor 0.01 to 10 μg/ml",n.i. (no inhibition)
same,Concentration of inhibitor in the proteolytic solution which determines the 50% inhibition of the protease,Papain [4],n.i. (no inhibition)
same,Concentration of inhibitor in the proteolytic solution which determines the 50% inhibition of the protease,"Hiv-1 protease; Hiv-1 protease 5 μg/ml, 50 mM acetate pH 5.5, 0.01% Tween 20, 2 hours at 37° C., inhibitor 0.01 to 10 μg/ml",n.i. (no inhibition)
same,Concentration of inhibitor in the proteolytic solution which determines the 50% inhibition of the protease,"Pepsin; pepsin 5 μg/ml, 50 mM acetate pH 5.5, 0.01% Tween 20, 2 hours at 37° C., inhibitor 0.01 to 10 μg/ml",n.i. (no inhibition)
same,specific inhibition of proteases of the serine class,[5],specific inhibition
same,Concentration of inhibitor in the proteolytic solution which determines the 50% inhibition of the protease,"Cathepsin B; cathepsin B 10 μg/ml, 50 mM acetate pH 5.5, 5 mM cysteine, 2 hours at 37° C., inhibitor 0.01 to 10 μg/ml",n.i. (no inhibition)
same,Concentration of inhibitor in the proteolytic solution which determines the 50% inhibition of the protease,Elastase,1.0 µg/mL
same,Concentration of inhibitor in the proteolytic solution which determines the 50% inhibition of the protease,"Renin; renin 5 μg/ml, 50 mM acetate pH 5.5, 0.01% Tween 20, 2 hours at 37° C., inhibitor 0.01 to 10 μg/ml",n.i. (no inhibition)
same,Concentration of inhibitor in the proteolytic solution which determines the 50% inhibition of the protease,Subtilisin,7.5 µg/mL
